Consider two molecules from publication PMC10771415, “Mechanism of anion exchange and small-molecule inhibition of pendrin” (Nature Communications, 2024).

Experiment [1] addresses pendrin (ssPendrin, SLC26A4) (Sus scrofa, UniProt A0A480E679, T224V). As to the kind of experiment: inhibition of […]-HCO3- uptake in proteoliposomes of purified mutant. Type of experiment: biochemical.
Experiment [2] addresses pendrin (ssPendrin, SLC26A4) (Sus scrofa, UniProt A0A480E679, Q101L). The description is as above. Format: biochemical.
Experiment [3] addresses pendrin (ssPendrin, SLC26A4) (Sus scrofa, UniProt A0A480E679, Q101L/T224A). The description is as above. Type of experiment: biochemical.
In experiment [4] the target is T1, pendrin (ssPendrin, SLC26A4) (Sus scrofa, UniProt A0A480E679).
T1 construct: C-terminal TEV site and 8x His-tag
T1 sequence (A0A480E679 1-780): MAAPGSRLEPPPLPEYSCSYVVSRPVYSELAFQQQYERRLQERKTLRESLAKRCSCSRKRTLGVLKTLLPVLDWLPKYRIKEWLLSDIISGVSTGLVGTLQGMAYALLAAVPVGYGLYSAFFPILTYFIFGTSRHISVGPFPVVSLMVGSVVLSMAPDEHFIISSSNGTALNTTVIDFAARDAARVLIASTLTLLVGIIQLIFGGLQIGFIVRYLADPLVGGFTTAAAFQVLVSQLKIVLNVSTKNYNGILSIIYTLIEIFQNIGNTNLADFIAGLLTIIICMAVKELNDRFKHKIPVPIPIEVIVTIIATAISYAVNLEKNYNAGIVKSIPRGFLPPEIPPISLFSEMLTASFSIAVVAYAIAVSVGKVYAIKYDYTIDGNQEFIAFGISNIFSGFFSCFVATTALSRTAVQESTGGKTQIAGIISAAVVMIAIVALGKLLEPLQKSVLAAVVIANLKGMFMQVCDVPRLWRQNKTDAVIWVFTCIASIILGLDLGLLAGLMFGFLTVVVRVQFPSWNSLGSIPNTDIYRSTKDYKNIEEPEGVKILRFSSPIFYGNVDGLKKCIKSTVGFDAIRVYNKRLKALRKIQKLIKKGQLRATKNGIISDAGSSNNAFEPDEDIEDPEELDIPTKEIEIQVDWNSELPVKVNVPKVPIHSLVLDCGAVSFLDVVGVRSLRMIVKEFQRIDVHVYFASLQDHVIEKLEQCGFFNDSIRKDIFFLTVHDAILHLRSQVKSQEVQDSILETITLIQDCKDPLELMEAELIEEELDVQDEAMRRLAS
Nature of the experiment: cryo-EM structure at […] Å; inhibition of […]-HCO3- uptake in proteoliposomes of purified protein. Type of experiment: biochemical.

For experiment [5], the target named is pendrin from Sus scrofa (ssPendrin) (Sus scrofa). As to the kind of experiment: cryo-EM structure; purified ssPendrin in 20 mM HEPES pH 7.5, 2 mM BME, 0.02% GDN with 150 mM NaCl, NaI, NaHCO3 or Na gluconate, or 150 mM NaCl and 10 mM NFA; refined with C2 symmetry.

pendrin (ssPendrin, SLC26A4) (Sus scrofa, UniProt A0A480E679, T224V), sequence (A0A480E679 entry or part of it T224V): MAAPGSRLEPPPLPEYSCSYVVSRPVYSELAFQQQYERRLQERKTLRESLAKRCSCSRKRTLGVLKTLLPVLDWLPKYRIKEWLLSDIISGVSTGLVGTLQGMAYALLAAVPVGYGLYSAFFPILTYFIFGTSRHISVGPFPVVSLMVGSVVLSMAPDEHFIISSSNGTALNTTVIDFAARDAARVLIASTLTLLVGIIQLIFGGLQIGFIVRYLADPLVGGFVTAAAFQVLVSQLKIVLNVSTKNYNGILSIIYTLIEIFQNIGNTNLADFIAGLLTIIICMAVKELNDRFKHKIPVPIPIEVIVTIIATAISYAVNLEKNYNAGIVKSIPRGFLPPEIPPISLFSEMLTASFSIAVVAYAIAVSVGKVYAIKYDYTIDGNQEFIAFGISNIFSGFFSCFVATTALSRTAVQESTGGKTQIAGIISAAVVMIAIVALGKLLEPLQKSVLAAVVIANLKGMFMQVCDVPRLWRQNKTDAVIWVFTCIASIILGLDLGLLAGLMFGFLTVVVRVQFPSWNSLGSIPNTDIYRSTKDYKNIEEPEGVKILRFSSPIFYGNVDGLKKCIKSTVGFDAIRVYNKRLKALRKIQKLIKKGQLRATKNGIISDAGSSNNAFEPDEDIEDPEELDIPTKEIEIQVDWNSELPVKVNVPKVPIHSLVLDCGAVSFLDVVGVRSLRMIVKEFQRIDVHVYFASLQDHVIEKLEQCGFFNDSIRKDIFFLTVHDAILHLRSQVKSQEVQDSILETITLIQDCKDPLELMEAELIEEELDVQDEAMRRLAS
pendrin (ssPendrin, SLC26A4) (Sus scrofa, UniProt A0A480E679, Q101L/T224A), sequence (A0A480E679 entry or part of it Q101L/T224A): as the sequence (A0A480E679 entry or part of it T224V) above, with Q101L, V224A counted along it
pendrin (ssPendrin, SLC26A4) (Sus scrofa, UniProt A0A480E679, Q101L), sequence (A0A480E679 entry or part of it Q101L): as the sequence (A0A480E679 entry or part of it T224V) above, with Q101L, V224T counted along it

`O=C(O)c1cccnc1Nc1cccc(C(F)(F)F)c1` [NFA, niflumic acid]: the IC50 is 9.5 µM in experiment [1], 31.2 µM in experiment [2], 16.3 µM in experiment [3] and 15.5 ± 1.5 µM in experiment [4].
Turning to “pendrin from Sus scrofa (ssPendrin) (natural protein)”, the stoichiometry N in experiment [5] came to 2.
